# Assay results taken from patent US20150371009A1, “DRUG IDENTIFICATION MODELS AND METHODS OF USING THE SAME TO IDENTIFY COMPOUNDS TO TREAT DISEASE” (priority 2014, published 2015).
# Tests used:
# [1] = test system: SK-BR-3 breast cancer cell line (ER−); assay: In vitro cell line proliferation assay (MTS), SKBR3; type: cell-based; details: 96 hours; for inhibition of cell line proliferation: ER− SKBR3, escalating doses
# Protocol: (§1) In vitro cell line proliferation assays. MCF7 and SK-BR-3 breast cancer cell lines were provided by the American Type Culture Collections (ATCC; Manassas, Va.) and cultured in complete medium (high glucose DMEM supplemented with 10% fetal bovine serum, L-glutamine, and pen/strep antibiotics). Drugs were purchased from Sigma-Aldrich (St. Louis, Mo.). Proliferation assays were performed as previously described with minor modifications. Cells were seeded at 5×10^3 cells per well in a 96 well plate in the morning. […] The plates were incubated at 37° C./5% CO2 for 96 hours. Cell proliferation was analyzed using MTS reagent (Promega; Madison, Wis.) according to manufacturer's protocol.
# (§2) Tamoxifen was selected as a currently used breast cancer drug for comparison. […] Cell proliferation was measured using the MTS assay according to manufacturer's protocol.
# [2] = test system: MCF7 breast cancer cell line (ER+); assay: In vitro cell line proliferation assay (MTS), MCF7; type: cell-based; details: 96 hours; for inhibition of cell line proliferation: ER+ MCF7, escalating doses
# Protocol: as §1, §2
# [3] = patients; donepezil doses up to 23 mg/day; cited from earlier work
"IC50 ([1]; ER− SKBR3 cells, complete medium, MTS) [µM]","IC50 ([2]; ER+ MCF7 cells, complete medium, MTS) [µM]",Compound,inhibition of cell line proliferation [1],inhibition of cell line proliferation [2],side effects / worst adverse drug reactions [3]
55.7 ± 4.2,31.2 ± 4.9,4-hydroxytamoxifen [Drug 4OHtam],dose dependent inhibition,dose dependent inhibition,
,,"COc1cc2c(cc1OC)C(=O)C(CC1CCN(Cc3ccccc3)CC1)C2 (racemic) [Donepezil, (RS)-2-[(1-benzyl-4-piperidyl)methyl]-5,6-dimethoxy-2,3-dihydroinden-1-one]",dose dependent inhibition,dose dependent inhibition,
,,CC/C(=C(\c1ccccc1)c1ccc(OCCN(C)C)cc1)c1ccccc1 [Tamoxifen],,,severe side effects including the development of endometrial cancer
